Reference: article PMC5126668 (PeerJ, 2016)
Where “and” joins values, the source holds several entries; their conditions need not be identical. Identical values can stand only once. Like-named read-outs stand apart in the source and are kept apart here.

What was measured:
[1] = Toxicokinetics of BAK in rat plasma after a single oral dose; assay type: in vivo, Sprague–Dawley rats
Method: ABT, a broad-spectrum nonspecific CYP inhibitor, was selected as a positive control inhibitor of CYP enzymes. Aristolochic acid A (AA I) was selected as the nephrotoxicity positive control in the study.
The plasma samples were separated by centrifugation at 4000 rpm for 15 min. […] Subsequently, 10 µL of internal standard solution (tanshinone II A, 10 µg/mL) and 0.3 mL of acetonitrile were added to 0.1 mL of plasma or homogenates, and centrifuged at 13,300 rpm for 15 min after 2 min of vortexing. The supernatant was reconstituted in 100 µL of mobile phase after drying under 40 °C nitrogen, the mixture then was vortexed for 5 min and centrifuged at 13,300 rpm for 15 min. Finally, 20 µL of supernatant was injected for HPLC analysis.
The mobile phase consisted of methanol and water with 0.1% formic acid (89:11, v/v) and was supplied at a flow rate of 0.8 mL/min. The detection wavelength was set to 262 nm.

[2] = molecular target: T1, CYP1A2 (Homo sapiens, UniProt P05177); assay: Inhibition of CYP activities by GA in HLMs (phenacetin); assay type: biochemical
T1 construct: tissue iPhase Pharmaceutical Services (Beijing, China) Lot # 7MMC011; host or cells: pooled human liver microsomes
T1 sequence (P05177 1-516): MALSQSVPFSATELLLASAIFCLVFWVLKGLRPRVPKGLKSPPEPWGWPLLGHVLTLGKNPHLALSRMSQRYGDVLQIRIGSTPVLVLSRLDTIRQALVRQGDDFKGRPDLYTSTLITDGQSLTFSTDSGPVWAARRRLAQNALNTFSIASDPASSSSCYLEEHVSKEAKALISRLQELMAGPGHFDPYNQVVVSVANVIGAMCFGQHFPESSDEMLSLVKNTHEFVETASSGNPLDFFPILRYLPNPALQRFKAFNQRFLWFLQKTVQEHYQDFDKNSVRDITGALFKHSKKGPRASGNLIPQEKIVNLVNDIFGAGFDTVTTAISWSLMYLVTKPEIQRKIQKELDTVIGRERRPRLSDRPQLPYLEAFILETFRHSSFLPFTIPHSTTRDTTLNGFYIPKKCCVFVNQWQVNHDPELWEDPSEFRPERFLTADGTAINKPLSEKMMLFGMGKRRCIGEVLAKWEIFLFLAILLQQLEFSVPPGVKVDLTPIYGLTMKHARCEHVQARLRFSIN
Method: (§1) The samples containing HLMs were prepared in an ice bath, and three replicates of each dose were tested.
(§2) The reaction system consisted of 0.5 g/L HLMs, 1 mM NADPH, 25 µM phenacetin (CYP1A2 substrate), 25 µM tolbutamide (CYP2C9 substrate), 25 µM mephenytoin (CYP2C19 substrate), 10 µM dextromethorphan (CYP2D6 substrate) and 10 µM midazolam (CYP3A4 substrate). After incubation at 37 °C for 30 min, 200 µL of methanol containing 100 µg/L propranolol hydrochloride was added to terminate the reaction. The samples were then treated, and the corresponding substrate metabolites of CYP isoforms were detected according to a previously described method ([Shen et al., 2013]).

[3] = molecular target: T2, CYP2D6 (Homo sapiens, UniProt P10635); assay: Inhibition of CYP activities by GA in HLMs (dextromethorphan); assay type: biochemical
T2 construct: was investigated in HLMs; tissue iPhase Pharmaceutical Services (Beijing, China) Lot # 7MMC011; host or cells: pooled human liver microsomes
T2 sequence (P10635 whole entry): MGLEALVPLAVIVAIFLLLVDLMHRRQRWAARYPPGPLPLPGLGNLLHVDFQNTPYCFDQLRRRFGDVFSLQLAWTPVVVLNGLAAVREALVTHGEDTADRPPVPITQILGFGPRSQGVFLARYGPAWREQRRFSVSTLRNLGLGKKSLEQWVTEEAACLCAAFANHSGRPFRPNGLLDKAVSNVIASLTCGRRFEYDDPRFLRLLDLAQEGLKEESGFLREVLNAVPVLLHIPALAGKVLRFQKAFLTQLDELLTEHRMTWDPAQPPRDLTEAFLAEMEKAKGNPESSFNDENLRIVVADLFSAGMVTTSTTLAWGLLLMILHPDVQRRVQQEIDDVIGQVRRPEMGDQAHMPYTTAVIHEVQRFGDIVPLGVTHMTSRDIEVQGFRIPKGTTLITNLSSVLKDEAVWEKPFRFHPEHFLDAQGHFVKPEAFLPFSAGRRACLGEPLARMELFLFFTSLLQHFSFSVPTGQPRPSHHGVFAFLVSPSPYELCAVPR
Method: as §1, §2

[4] = Sprague-Dawley, plasma, rat, single oral, BAK 200 mg/kg, with ABT or GA 100 mg/kg where named
[5] = rat, single oral, BAK 200 mg/kg, with ABT or GA 100 mg/kg where named

Compound: C=C[C@@](C)(/C=C/c1ccc(O)cc1)CCC=C(C)C [BAK, Bakuchiol]
- BAK concentration in rat plasma, single rats 1-5 ([1]; 0.083 h after single oral dose): 19.440 ng/mL and 20.126 ng/mL and 124.551 ng/mL and 203.437 ng/mL and 45.002 ng/mL
- BAK concentration in rat plasma, single rats 1-5 ([1]; 0.500 h after single oral dose): 298.348 ng/mL and 315.739 ng/mL and 248.132 ng/mL and 249.198 ng/mL
- BAK concentration in rat plasma, single rats 1-5 ([1]; 1.000 h after single oral dose): 370.910 ng/mL and 622.012 ng/mL and 388.077 ng/mL and 359.422 ng/mL and 237.838 ng/mL
- BAK concentration in rat plasma, single rats 1-5 ([1]; 2.000 h after single oral dose): 741.835 ng/mL and 1388.336 ng/mL and 509.873 ng/mL and 610.667 ng/mL and 641.059 ng/mL
- BAK concentration in rat plasma, single rats 1-5 ([1]; 4.000 h after single oral dose): 1167.913 ng/mL and 614.550 ng/mL and 628.766 ng/mL and 924.718 ng/mL
- BAK concentration in rat plasma, single rats 1-5 ([1]; 8.000 h after single oral dose): 297.448 ng/mL and 580.240 ng/mL and 453.584 ng/mL and 180.567 ng/mL and 336.676 ng/mL
- BAK concentration in rat plasma, single rats 1-5 ([1]; 12.00 h after single oral dose): 101.667 ng/mL and 221.273 ng/mL and 140.087 ng/mL and 93.481 ng/mL and 214.562 ng/mL
- BAK concentration in rat plasma, single rats 1-5 ([1]; 24.00 h after single oral dose): 76.407 ng/mL and 58.961 ng/mL and 54.579 ng/mL and 73.723 ng/mL
- Cmax [1, 4]: 887 ± 281 ng/mL
- MRT [1, 4]: 6.79 ± 0.43 h
- Tmax [1, 4]: 3.6 ± 0.89 h
- AUC(0-t) ([1]; Sprague-Dawley, plasma, rat, single oral, BAK 200 mg/kg, with ABT or GA 100 mg/kg where named, read-out: AUC0−24 of BAK): 7260 ng·h/mL
- concentration at 0.083 h ([1]; Sprague-Dawley, rat, plasma, po, 200 mg/kg, 0.083 h after single oral dose): 82.5 ng/mL
- concentration at 0.5 h ([1]; Sprague-Dawley, rat, plasma, po, 200 mg/kg, 0.500 h after single oral dose, read-out: BAK concentration in rat plasma, mean): 273 ng/mL
- concentration at 0.5 h ([1]; Sprague-Dawley, rat, plasma, po, 200 mg/kg, 0.500 h after single oral dose, read-out: BAK concentration in rat plasma, single rats 1-5): 256 ng/mL
- concentration at 1 h ([1]; Sprague-Dawley, rat, plasma, po, 200 mg/kg, 1.000 h after single oral dose): 396 ng/mL
- concentration at 2 h ([1]; Sprague-Dawley, rat, plasma, po, 200 mg/kg, 2.000 h after single oral dose): 778 ng/mL
- concentration at 4 h ([1]; Sprague-Dawley, rat, plasma, po, 200 mg/kg, 4.000 h after single oral dose, read-out: BAK concentration in rat plasma, mean): 843 ng/mL
- concentration at 4 h ([1]; Sprague-Dawley, rat, plasma, po, 200 mg/kg, 4.000 h after single oral dose, read-out: BAK concentration in rat plasma, single rats 1-5): 881 ng/mL
- concentration at 8 h ([1]; Sprague-Dawley, rat, plasma, po, 200 mg/kg, 8.000 h after single oral dose): 370 ng/mL
- concentration at 12 h ([1]; Sprague-Dawley, rat, plasma, po, 200 mg/kg, 12.00 h after single oral dose): 154 ng/mL
- concentration at 24 h ([1]; Sprague-Dawley, rat, plasma, po, 200 mg/kg, 24.00 h after single oral dose, read-out: BAK concentration in rat plasma, mean): 68.1 ng/mL
- concentration at 24 h ([1]; Sprague-Dawley, rat, plasma, po, 200 mg/kg, 24.00 h after single oral dose, read-out: BAK concentration in rat plasma, single rats 1-5): 76.9 ng/mL
- concentration at 24 h ([1]; Sprague-Dawley, rat, plasma, po, 200 mg/kg, rat, 24 h after single oral dose, read-out: Exposure of BAK, Plasma, mean): 68.1 ng/g
- concentration at 24 h ([1]; Sprague-Dawley, rat, plasma, po, 200 mg/kg, rat, 24 h after single oral dose, read-out: Exposure of BAK, Plasma, single rats): 76.9 ng/g
- Exposure of BAK, Plasma, single rats ([1]; rat, 24 h after single oral dose): 0.0764 µg/g and 0.0590 µg/g and 0.0546 µg/g and 0.0737 µg/g
- CL of BAK [1, 5]: 470 ± 132 mL/min/kg
- V of BAK [1, 5]: 184.2 ± 58.6 L/kg
- t1∕2 of BAK [1, 5]: 4.71 ± 1.56 h

Compound: CC1(C)[C@@H](O)CC[C@]2(C)[C@H]3C(=O)C=C4[C@@H]5C[C@@](C)(C(=O)O)CC[C@]5(C)CC[C@@]4(C)[C@]3(C)CC[C@@H]12 [GA, Glycyrrhetinic acid]
- IC50 ([2]; HLMs, 30 min pre-incubation with NADPH, phenacetin 25 µM): 61.1 ± 1.13 µM
- activity at 30 min, 156.25 µM ([2]; human, human liver microsomes (HLMs), probe phenacetin 25 µM, CYP1A2-30min, GA 156.2500, vs control, read-out: Relative activity (%)): 18.2%
- activity at 30 min, 312.5 µM ([2]; human, human liver microsomes, probe phenacetin 25 µM, CYP1A2-30min, GA 312.5000, vs control, read-out: Relative activity (%)): 14.1%
- activity at 30 min, 1000 µM ([2]; human, human liver microsomes, probe phenacetin 25 µM, CYP1A2-30min, GA 1000.0000, vs control, read-out: Relative activity (%)): 5.73%
- activity at 30 min, […] ([2]; human, human liver microsomes, probe phenacetin 25 µM, read-out: Relative activity (%)): 10.3%
- activity at 30 min, 0.1 µM ([2]; human, human liver microsomes, probe phenacetin (25 µM), CYP1A2-30min, GA 0.1000, vs control, read-out: Relative activity (%)): 95%
- activity at 30 min, 1 µM ([2]; human, human liver microsomes, probe phenacetin (25 µM), CYP1A2-30min, GA 1.0000, vs control, read-out: Relative activity (%)): 84.3%
- activity at 30 min, 6.25 µM ([2]; human, human liver microsomes, probe phenacetin (25 µM), CYP1A2-30min, GA 6.2500, vs control, read-out: Relative activity (%)): 89.2%
- activity at 30 min, 31.25 µM ([2]; human, human liver microsomes, probe phenacetin (25 µM), CYP1A2-30min, GA 31.2500, vs control, read-out: Relative activity (%)): 70.9%
- activity at 30 min, 100 µM ([2]; human, human liver microsomes, probe phenacetin (25 µM), CYP1A2-30min, GA 100.0000, vs control, read-out: Relative activity (%)): 31%
- IC50 ([3]; HLMs, 30 min pre-incubation with NADPH, dextromethorphan 10 µM): 263 ± 1.05 µM
- activity at 30 min, 0.1 µM ([3]; human, human liver microsomes, probe dextromethorphan (10 µM), CYP2D6-30min, GA 0.10, vs control, read-out: Relative activity (%)): 96.4%
- activity at 30 min, 1 µM ([3]; human, human liver microsomes, probe dextromethorphan (10 µM), CYP2D6-30min, GA 1.00, vs control, read-out: Relative activity (%)): 92.4%
- activity at 30 min, 6.25 µM ([3]; human, human liver microsomes, probe dextromethorphan (10 µM), CYP2D6-30min, GA 6.25, vs control, read-out: Relative activity (%)): 96%
- activity at 30 min, 31.25 µM ([3]; human, human liver microsomes, probe dextromethorphan (10 µM), CYP2D6-30min, GA 31.25, vs control, read-out: Relative activity (%)): 91.1%
- activity at 30 min, 100 µM ([3]; human, human liver microsomes, probe dextromethorphan (10 µM), CYP2D6-30min, GA 100.00, vs control, read-out: Relative activity (%)): 85.1%
- activity at 30 min, 156.25 µM ([3]; human, human liver microsomes, probe dextromethorphan (10 µM), CYP2D6-30min, GA 156.25, vs control, read-out: Relative activity (%)): 81.7%
- activity at 30 min, 312.5 µM ([3]; human, human liver microsomes, probe dextromethorphan (10 µM), CYP2D6-30min, GA 312.50, vs control, read-out: Relative activity (%)): 42%
- activity at 30 min, 1000 µM ([3]; human, human liver microsomes, probe dextromethorphan (10 µM), CYP2D6-30min, GA 1000.00, vs control, read-out: Relative activity (%)): 29.3%
- activity at 30 min, […] ([3]; human, human liver microsomes, probe dextromethorphan (10 µM), read-out: Relative activity (%)): 69.7%
